According to PMC9026148, “Pre-Clinical Study Evaluating Novel Protein Phosphatase 2A Activators as Therapeutics for Neuroblastoma” (Cancers, 2022):

How the values were obtained:
Type in all cases: cell-based, human
PP2A = PP2A immunoprecipitation phosphatase assay in SK-N-AS cells; conditions: 24 h; for PP2A activation compared with FTY720: 10 μM vs FTY720 5 μM, p ≤ 0.01; for PP2A activation (percent PP2A activity): 10 μM, control 100 ± 0%
Method: SK-N-AS cells (1 × 10^6) were treated with FTY720 (5 μM), 792 (10 μM), or 1154 (10 μM) for 24 h and lysed using HEPES (AC215001000, Thermo Fisher Scientific Inc.), MgCl2 (MX0045-4, EM Science, Gibbstown, NJ, USA), KCl (02-003-741, Thermo Fisher Scientific Inc.), PMSF (Sigma Aldrich), dithiothreitol (EC-601, National Diagnostics, Atlanta, GA, USA), and Igepal CA-630 ([…], Sigma Aldrich) for 20 min on ice. Cell lysates were centrifuged at 17,000 rpm for 30 min at 4 °C. The commercially available PP2A Immunoprecipitation Phosphatase Assay Kit (17-313, EMD Millipore) has been used by other investigators to directly measure PP2A activity and was utilized per manufacturer's protocol to evaluate the activity of PP2A following treatment and compared to untreated cells. Experiments were completed at least in triplicate, and data reported as mean fold change ± standard error of the mean (SEM).

[1] = tested on: SK-N-AS, SK-N-BE(2), SH-EP, WAC2, COA6, COA129 cells; experiment: alamarBlue viability, long-term cell lines and PDX cells; conditions: increasing doses, 24 h; all cell lines
Method: CellTiter 96® Aqueous One Solution Cell Proliferation assay (Promega, Madison, WI, USA) was used to examine proliferation, and alamarBlue® assay (Thermo Fisher Scientific, Inc.) was used to evaluate viability. Cells, concentrations ranging from 5 × 10^3 to 1.5 × 10^4, depending on cell type due to wide variation in growth characteristics between established cell lines and PDX cells, were plated in 96-well plates and treated with increasing doses of 792 or 1154 for 24 h. CellTiter 96® or alamarBlue® dye (10 µL) was added for proliferation and viability assays, respectively. A microplate reader (Epoch Microplate Spectrophotometer, BioTek Instruments, Winooski, VT) measured absorbance at 490 nm for CellTiter 96® and at 570 nm for alamarBlue®, using 600 nm as a reference. […] Experiments were completed with at least three biologic replicates, and data reported as fold change ± SEM.
Supplemental Figure S5: Treatment of neuroblastoma cell lines with 792 or 1154 resulted in decreased viability. Neuroblastoma cells ( 1.5 x 104 for AS, BE, SH-EP, WAC, COA6; 3 x 105 for COA129) were plated in 96-well plates and treated with increasing doses of 792 or […]
viability following increasing doses of either 792 (A) or 1154 (B). Similarly, increasing […]
PDXs. Data reported as mean fold change ± SEM, and experiments were repeated with at least three biologic replicates. […]

SH-EP cells = experiment: Annexin V/PI apoptosis flow cytometry, SH-EP; conditions: 10 µM, 24 h
Method: Apoptosis was evaluated using the FITC Annexin V Apoptosis Detection Kit (BD Biosciences) according to manufacturer’s protocol. SH-EP cells (5 × 10^5) were treated with either 792 or 1154 (10 µM) for 24 h. Cells were trypsinized, washed with PBS, centrifuged, and re-suspended in 100 μL of 1× binding buffer (0.1 M HEPES/NaOH, 1.4 M NaCl, 25 mM CaCl2, pH 7.4). Annexin V-FITC staining solutions were added, and cells were incubated for 15 min at room temperature (20–25 °C) in the dark. Cells were washed in 1 mL of 1× binding buffer, centrifuged, and re-suspended in 500 μL of 1× binding buffer. PI was added, and cells sat on ice for 1 h prior to flow cytometry. Unstained cells and cells stained with either PI or Annexin V alone were utilized for negative controls and compensation. The percent of Annexin V and/or PI positive cells was determined via flow cytometry using the Attune NxT Flow Cytometer (Invitrogen). Data are represented as percent cell population with Annexin V + PI− stained cells representing early apoptotic cells, Annexin V + PI + cells representing late apoptotic cells, cells not stained with Annexin V or PI representing live cells, and cells stained with PI only representing necrotic or dead cells. FlowJo software (FlowJo, LLC) was used for data analysis. Data reported as mean ± SEM.
Supplemental Figure S6: 792 and 1154 treatment and apoptosis. Cells were serum starved and treated with 792 or 1154 to evaluate the cell cycle as previously described (Figure 4).
(A) The percent of cells in the subG1 (<G1) is reported in tabular form. There was no sig-nificant increase in the subG1 population in any of the cell lines except for SH-EP cells […]
subG1 population, further investigation of apoptosis was performed. Cells were treated with 792 or 1154 (0, 10 µM) for 24 hours and were assessed by flow cytometry of Annexin V/PI dual staining, and FlowJo was used for analysis. […]
significant increase (B) in early apoptosis (Annexin V + PI - cells, quadrant Q3) (C) whereas […]
mechanism behind the effect of these drugs on viability. […]

SMILES | PP2A activation compared with FTY720 (PP2A) | PP2A activation (percent PP2A activity) (PP2A) | viability [1] | early apoptosis (Annexin V/PI) (SH-EP cells) | late apoptosis (Annexin V/PI) (SH-EP cells)
O=S(=O)(N[C@H]1COC[C@@H](n2c3ccc(Cl)cc3c3cc(Cl)ccc32)[C@@H]1O)c1ccc(OC(F)(F)F)cc1 [ATUX-792] | significantly more than FTY720 | 117.5 ± 5.6% | significantly decreased viability | significant increase in early apoptosis | increased cells in late apoptosis
O=S(=O)(NC1CCCC(N2c3ccccc3CCc3ccccc32)C1O)c1ccc(OC(F)(F)F)cc1 (stereo not drawn) [DBK-1154] | significantly more than FTY720 | 134.8 ± 18.4% | significantly decreased viability | – | increased cells in late apoptosis
